Test results reported in PubChem BioAssay (NCI).
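Following 48 hours of exposure in 96-well plates, responses at five concentrations were used to interpolate endpoints linearly. At the GI50, growth is halved. TGI: concentration producing complete growth inhibition.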

Experiments:
Assay in all cases: inhibition of tumour cell growth, NCI panel, 48 h
[1] = system: DLD-1 colon
[2] = system: DMS 273 small cell lung
[3] = system: HCC-2998 colon
[4] = system: HCT-15 colon
[5] = system: HL-60(TB) leukemia
[6] = system: K-562 leukemia
[7] = system: SN12C renal
[8] = system: SNB-75 CNS
[9] = system: SR leukemia
[10] = system: MDA-MB-231 breast

Structure (SMILES) | GI50 [1] [µM] | TGI [1] [µM] | GI50 [2] [µM] | TGI [2] [µM] | GI50 [3] [µM] | TGI [3] [µM] | GI50 [4] [µM] | TGI [4] [µM] | GI50 [5] [µM] | TGI [5] [µM] | GI50 [6] [µM] | TGI [6] [µM] | GI50 [7] [µM] | TGI [7] [µM] | GI50 [8] [µM] | TGI [8] [µM] | GI50 [9] [µM] | TGI [9] [µM] | TGI [10] [µM]
CC[O-].CC[O-].COc1ccc(C(=O)[CH-]C(C)=O)cc1OC.COc1ccc(C(=O)[CH-]C(C)=O)cc1OC.[Ti+4] | 77.5 | > 100 | 44.4 | > 100 | > 100 | > 100 | 90.1 | > 100 | 43.3 | > 100 | > 100 | > 100 | > 100 | > 100 | 26.9 | > 100 | 31.1 | 83.4 | 
CCOC(=O)NC(=O)c1cn(CCCCCCCCCCC(=O)NCCCN2CCN(CCCNC(=O)CCCCCCCCCCn3cc(C(=O)NC(=O)OCC)c(=O)[nH]c3=O)CC2)c(=O)[nH]c1=O |  | > 100 |  | > 100 |  | > 100 |  | > 100 |  | > 100 |  | > 100 |  | > 100 |  | > 100 |  | > 100 | 
O=C(CCC(=O)Nc1ccc(Cl)cc1)CC(=O)c1ccc2ccccc2c1 |  | > 100 |  | > 100 |  | > 100 |  | > 100 |  | > 100 |  | > 100 |  | > 100 |  | > 100 |  | > 100 | 
N#CCCN(C1=NN(C(=O)CC(=O)Nc2ccc(Cl)cc2)C(c2ccccc2)C1)c1ccc(Cl)cc1 (stereo not drawn) |  | > 100 |  | > 100 |  | > 100 |  | > 100 |  | > 100 |  | > 100 |  | > 100 |  | > 100 |  | > 100 | 
Cn1cnc([N+](=O)[O-])c1Sc1nc2ccccc2o1 |  | 16.6 |  | 9.93 |  | 24.9 |  | 11.2 |  | 3.79 |  | 11.3 |  | 18.5 |  | 32.9 |  | 8.14 | 
CC12CC/C(=N/NC(N)=O)C3C1CCCC32 |  | > 100 |  | > 100 |  | > 100 |  | > 100 |  | > 100 |  | > 100 |  | > 100 |  | > 100 |  | > 100 | 
N.N.N.N.N.N#Cc1nn[n-]n1.[Cl-].[Co+3] | > 100 | > 100 | > 100 | > 100 | > 100 | > 100 | > 100 | > 100 | > 100 | > 100 | > 100 | > 100 | > 100 | > 100 | > 100 | > 100 | > 100 | > 100 | 
CCC1(OC(=O)CNC)C(=O)OCc2c1cc1n(c2=O)Cc2cc3ccccc3nc2-1 (stereo not drawn) |  | 26.8 |  | < 0.0144 |  | 1.57 |  | > 100 |  | 0.159 |  | > 60.1 |  | 0.849 |  | 0.0842 |  |  | 3.94
COC(=O)C(=O)C(C#N)c1cccc(Cl)c1 (stereo not drawn) |  | > 100 |  | > 100 |  | > 100 |  | > 100 |  | > 100 |  | > 100 |  | > 100 |  | > 100 |  | > 100 | 
O=C(O)CCC(=O)Oc1ccc(O)c2c1CCCC2=O |  | > 100 |  | > 100 |  | > 100 |  | > 100 |  | > 100 |  | > 100 |  | > 100 |  | > 100 |  | > 100 | 
